≈ marks a conversion by molar mass, not a printed value.
Experiments:
[1] = Permeability across apical to basolateral side in human Caco2 cells; assay type: ADME, cell-based; settings: Caco-2, read-out: permeability
Mus musculus [2] = test: Antiarthritic activity in B10.RIII mouse collagen/complete Freund's adjuvant-induced arthritis model assessed as reduction of disease score at 100 mg/kg, po qd for 5 weeks relative to control; assay type: functional; design: scale not given: the % may be the effect or the level left
Glucocorticoid receptor [3] = molecular target: T1, Glucocorticoid receptor (Homo sapiens, UniProt P04150); test: Transactivation of glucocorticoid receptor in human HeLa cells harboring MMTV promoter at 2 uM by luciferase reporter gene assay relative to dexamethasone; assay type: cell-based; settings: read-out: Efficacy
T1 sequence (P04150 whole entry): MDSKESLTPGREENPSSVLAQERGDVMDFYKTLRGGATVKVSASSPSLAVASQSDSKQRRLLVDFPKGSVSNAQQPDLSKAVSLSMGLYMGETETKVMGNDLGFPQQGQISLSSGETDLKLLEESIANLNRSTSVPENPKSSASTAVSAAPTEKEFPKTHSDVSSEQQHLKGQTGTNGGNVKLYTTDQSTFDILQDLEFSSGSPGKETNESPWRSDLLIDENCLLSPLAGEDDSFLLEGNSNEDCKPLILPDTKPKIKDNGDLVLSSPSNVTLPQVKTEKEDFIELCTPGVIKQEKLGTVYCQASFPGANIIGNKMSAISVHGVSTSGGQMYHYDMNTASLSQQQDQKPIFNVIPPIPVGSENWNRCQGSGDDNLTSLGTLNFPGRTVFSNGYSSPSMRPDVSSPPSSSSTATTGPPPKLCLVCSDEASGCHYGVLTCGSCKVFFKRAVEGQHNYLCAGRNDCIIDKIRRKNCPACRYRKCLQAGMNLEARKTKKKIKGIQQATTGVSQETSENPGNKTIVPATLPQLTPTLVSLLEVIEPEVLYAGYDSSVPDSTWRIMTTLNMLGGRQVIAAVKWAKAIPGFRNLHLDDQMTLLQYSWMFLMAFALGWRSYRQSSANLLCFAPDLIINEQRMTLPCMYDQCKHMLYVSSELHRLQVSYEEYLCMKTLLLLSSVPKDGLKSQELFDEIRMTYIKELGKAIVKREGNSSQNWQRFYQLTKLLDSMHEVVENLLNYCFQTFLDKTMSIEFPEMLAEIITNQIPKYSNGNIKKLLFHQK

[4] = Equilibrium solubility of the compound at pH 2.2; assay type: physicochemical; settings: buffer
Homo sapiens = species: Homo sapiens; test: Selectivity ratio of IC50 for progesterone receptor (unknown origin) to IC50 for glucocorticoid receptor (unknown origin)
Mus musculus [5] = test: Toxicity in B10.RIII mouse assessed as insulin level in serum at 100 mg/kg, po qd for 5 weeks relative to control; assay type: organism-based; design: dose 100 mg/kg, route oral; settings: in vivo, 840 h
[6] = Permeability across basolateral to apical side in human Caco2 cells; assay type: ADME, cell-based; settings: Caco-2, read-out: permeability
Glucocorticoid receptor [7] = molecular target: T1, Glucocorticoid receptor
[8] = Mean residence time in Sprague-Dawley rat at 2 mg/kg, iv; assay type: ADME, organism-based; design: dose 2 mg/kg, route intravenous; settings: in vivo
[9] = Equilibrium solubility of the compound at pH 7.4; assay type: physicochemical; settings: buffer
Mus musculus [10] = test: Antiinflammatory activity in mouse assessed as inhibition of LPS-induced TNFalpha production at 1 mg/kg, po; assay type: functional
Glucocorticoid receptor [11] = molecular target: T1, Glucocorticoid receptor; remark: listed apart in the source
Description: Agonist activity at glucocorticoid receptor in human foreskin fibroblasts assessed as inhibition of IL-1-induced IL-6 production by trans-repression assay

Mus musculus [12] = test: Toxicity in B10.RIII mouse assessed as free fatty acid level in serum at 100 mg/kg, po qd for 5 weeks relative to control; assay type: organism-based; design: dose 100 mg/kg, route oral; settings: in vivo, 840 h
[13] = molecular target: T2, Mineralocorticoid receptor (Homo sapiens, UniProt P08235); test: Displacement of TAMRA-labeled dexamethasone from mineralocorticoid receptor (unknown origin) by fluorescence polarization assay
T2 sequence (P08235 whole entry): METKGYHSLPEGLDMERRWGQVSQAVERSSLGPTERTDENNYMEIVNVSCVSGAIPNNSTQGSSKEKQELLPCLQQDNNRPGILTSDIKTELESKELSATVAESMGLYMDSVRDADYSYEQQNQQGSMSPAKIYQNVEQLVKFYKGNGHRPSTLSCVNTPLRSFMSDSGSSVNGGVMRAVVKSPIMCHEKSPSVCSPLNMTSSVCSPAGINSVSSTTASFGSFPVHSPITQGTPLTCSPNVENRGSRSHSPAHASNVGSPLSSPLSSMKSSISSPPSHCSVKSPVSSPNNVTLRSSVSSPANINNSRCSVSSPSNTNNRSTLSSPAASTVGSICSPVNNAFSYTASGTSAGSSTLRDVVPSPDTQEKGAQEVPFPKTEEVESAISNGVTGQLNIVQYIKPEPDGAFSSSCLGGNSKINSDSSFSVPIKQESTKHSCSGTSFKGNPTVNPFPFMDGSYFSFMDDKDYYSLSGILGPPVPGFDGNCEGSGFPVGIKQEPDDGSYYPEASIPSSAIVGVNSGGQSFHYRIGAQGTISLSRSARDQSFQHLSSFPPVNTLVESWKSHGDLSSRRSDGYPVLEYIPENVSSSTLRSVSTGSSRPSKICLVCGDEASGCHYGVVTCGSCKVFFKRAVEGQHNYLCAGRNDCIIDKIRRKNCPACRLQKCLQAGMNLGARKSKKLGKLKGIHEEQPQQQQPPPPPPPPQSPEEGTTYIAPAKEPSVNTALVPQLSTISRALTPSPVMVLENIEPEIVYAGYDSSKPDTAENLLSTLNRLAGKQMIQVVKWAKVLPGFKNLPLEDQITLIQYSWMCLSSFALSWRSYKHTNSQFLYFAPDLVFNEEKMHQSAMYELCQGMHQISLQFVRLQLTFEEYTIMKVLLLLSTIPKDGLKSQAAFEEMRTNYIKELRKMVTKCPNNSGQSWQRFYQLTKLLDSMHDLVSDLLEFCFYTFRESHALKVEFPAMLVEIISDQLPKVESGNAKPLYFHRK

Mus musculus [14] = test: Antiinflammatory activity in po dosed mouse assessed as inhibition of LPS-induced TNFalpha production; assay type: functional
Mus musculus [15] = test: Toxicity in B10.RIII mouse assessed as triglyceride level in serum at 30 mg/kg, po qd for 5 weeks relative to control; assay type: organism-based; design: dose 30 mg/kg, route oral; settings: in vivo, 840 h
Mus musculus [16] = test: Antiarthritic activity in po dosed B10.RIII mouse collagen/complete Freund's adjuvant-induced arthritis model assessed as reduction of disease score administered po qd for 5 weeks relative to control; assay type: functional; settings: 840 h
Mus musculus [17] = test: Toxicity in B10.RIII mouse assessed as body fate level in serum at 100 mg/kg, po qd for 5 weeks relative to control; assay type: organism-based; design: dose 100 mg/kg, route oral; settings: in vivo, 840 h
[18] = Efflux ratio of permeability from basolateral to apical side over apical to basolateral side in human Caco2 cells; assay type: ADME, cell-based; settings: Caco-2

Papp A→B [1]: 13.4 ×10⁻⁶ cm/s
Emax at 2 µM (Glucocorticoid receptor [3]): 1%
solubility thermodynamic [4]: 840 µg/mL (≈ 2200 µM)
Ratio IC50 (Homo sapiens): > 100
Papp B→A [6]: 16.9 ×10⁻⁶ cm/s
IC50 (Glucocorticoid receptor [7]): 2 nM
MRT [8]: 1.38 h
solubility thermodynamic [9]: 15 µg/mL (≈ 39.2 µM)
IC50 (Glucocorticoid receptor [11]): 27 nM
IC50 [13]: 420 nM
efflux ratio [18]: 1.3
SMILES: Cc1ccc(F)cc1C(C)(C)C[C@@](O)(Cc1cc2cnccc2[nH]1)C(C)(C)C
Activity (Mus musculus [2]): -84%
Activity (Mus musculus [5]): 224%
inhibition in vivo at 1 mg/kg (Mus musculus [10]): 82%
Activity (Mus musculus [12]): -27%
ED50 (Mus musculus [14]): < 1 mg/kg
Activity (Mus musculus [15]): 29%
ED50 (Mus musculus [16]): 30 mg/kg
Activity (Mus musculus [17]): -3%

— ChEMBL document CHEMBL3232739, “Discovery of a potent and dissociated non-steroidal glucocorticoid receptor agonist containing an alkyl carbinol pharmacophore” (Bioorg Med Chem Lett, 2014)
